Laboratory results published in ChEMBL document CHEMBL4007467, “Effects of 6-paradol, an unsaturated ketone from gingers, on cytochrome P450-mediated drug metabolism” (Bioorg Med Chem Lett, 2017).

Assays:
Type in all cases: ADME
CYP2C8 [1] = biological target: T1, CYP2C8 (Homo sapiens, UniProt P10632); assay: Inhibition of CYP2C8 in human liver microsomes assessed as enzyme-mediated metabolite formation at 0.3 uM using paclitaxel as substrate preincubated for 20 mins followed by substrate addition measured after 30 mins in presence of NADPH by LC-MS/MS analysis relative to control; set-up: scale not given: the % may be the effect or the level left; conditions: probe paclitaxel, read-out: Activity
T1 sequence (P10632 whole entry): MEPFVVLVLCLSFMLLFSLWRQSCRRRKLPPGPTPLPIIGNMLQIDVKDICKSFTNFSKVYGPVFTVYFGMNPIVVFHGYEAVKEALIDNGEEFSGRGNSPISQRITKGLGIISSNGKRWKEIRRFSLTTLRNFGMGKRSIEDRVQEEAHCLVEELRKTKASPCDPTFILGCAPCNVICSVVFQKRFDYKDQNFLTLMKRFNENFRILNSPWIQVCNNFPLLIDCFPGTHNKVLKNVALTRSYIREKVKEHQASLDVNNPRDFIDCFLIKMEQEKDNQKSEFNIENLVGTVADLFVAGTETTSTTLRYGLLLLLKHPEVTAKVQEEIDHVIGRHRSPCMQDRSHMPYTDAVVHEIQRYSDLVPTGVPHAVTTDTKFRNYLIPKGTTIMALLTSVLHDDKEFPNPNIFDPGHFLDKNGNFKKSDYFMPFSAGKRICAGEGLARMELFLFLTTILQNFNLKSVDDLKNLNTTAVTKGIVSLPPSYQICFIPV

CYP2C8 [2] = biological target: T1, CYP2C8; assay: Inhibition of CYP2C8 in human liver microsomes assessed as enzyme-mediated metabolite formation at 0.1 uM using paclitaxel as substrate preincubated for 20 mins followed by substrate addition measured after 30 mins in presence of NADPH by LC-MS/MS analysis relative to control; set-up: scale not given: the % may be the effect or the level left; conditions: probe paclitaxel, read-out: Activity
CYP3A4 [3] = biological target: T2, CYP3A4 (Homo sapiens, UniProt P08684); assay: Inhibition of CYP3A4 in human liver microsomes assessed as enzyme-mediated metabolite formation at 30 uM using testosterone as substrate preincubated for 20 mins followed by substrate addition measured after 30 mins in presence of NADPH by LC-MS/MS analysis relative to control; set-up: scale not given: the % may be the effect or the level left; conditions: probe testosterone, read-out: Activity
T2 sequence (P08684 whole entry): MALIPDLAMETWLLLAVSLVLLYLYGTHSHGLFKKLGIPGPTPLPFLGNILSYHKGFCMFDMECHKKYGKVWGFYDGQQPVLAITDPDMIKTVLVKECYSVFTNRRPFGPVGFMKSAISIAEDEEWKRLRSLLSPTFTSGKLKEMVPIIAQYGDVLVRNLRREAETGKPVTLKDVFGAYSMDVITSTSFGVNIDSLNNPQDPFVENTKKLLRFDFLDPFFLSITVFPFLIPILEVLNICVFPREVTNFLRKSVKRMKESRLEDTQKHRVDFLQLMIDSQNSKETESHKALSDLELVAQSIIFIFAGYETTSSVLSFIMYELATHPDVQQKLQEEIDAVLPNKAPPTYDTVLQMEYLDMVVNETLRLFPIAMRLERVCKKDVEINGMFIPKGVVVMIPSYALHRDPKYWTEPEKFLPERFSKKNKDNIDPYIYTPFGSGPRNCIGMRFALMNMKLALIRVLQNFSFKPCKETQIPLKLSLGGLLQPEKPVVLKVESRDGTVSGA

CYP2C19 = CYP2C19 (Homo sapiens, UniProt P33261); assay: Inhibition of CYP2C19 in human liver microsomes assessed as enzyme-mediated metabolite formation at 1 uM using (S)-mephenytoin as substrate preincubated for 20 mins followed by substrate addition measured after 30 mins in presence of NADPH by LC-MS/MS analysis relative to control; set-up: scale not given: the % may be the effect or the level left; conditions: probe (S)-mephenytoin, read-out: Activity
Chain of CYP2C19 (P33261 whole entry): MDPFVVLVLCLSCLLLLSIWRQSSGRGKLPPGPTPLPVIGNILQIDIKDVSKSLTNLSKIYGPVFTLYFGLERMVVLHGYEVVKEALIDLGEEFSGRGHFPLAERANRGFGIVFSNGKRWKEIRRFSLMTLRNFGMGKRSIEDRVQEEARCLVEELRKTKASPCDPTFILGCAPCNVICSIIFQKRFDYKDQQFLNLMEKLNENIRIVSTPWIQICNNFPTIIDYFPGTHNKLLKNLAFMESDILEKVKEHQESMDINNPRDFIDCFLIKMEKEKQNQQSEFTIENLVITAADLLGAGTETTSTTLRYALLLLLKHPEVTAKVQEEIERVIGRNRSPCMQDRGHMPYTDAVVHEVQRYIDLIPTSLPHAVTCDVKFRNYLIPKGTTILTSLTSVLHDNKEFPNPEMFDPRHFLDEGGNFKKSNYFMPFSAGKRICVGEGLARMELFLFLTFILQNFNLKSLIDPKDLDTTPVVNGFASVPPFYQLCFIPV

CYP1A2 = biological target: T3, CYP1A2 (Homo sapiens, UniProt P05177); assay: Inhibition of CYP1A2 in human liver microsomes assessed as enzyme-mediated metabolite formation at 1 uM using phenacetin as substrate incubated for 5 mins followed by NADPH addition measured after 30 mins by LC-MS/MS analysis relative to control; set-up: scale not given: the % may be the effect or the level left; conditions: probe phenacetin, read-out: Activity
T3 sequence (P05177 whole entry): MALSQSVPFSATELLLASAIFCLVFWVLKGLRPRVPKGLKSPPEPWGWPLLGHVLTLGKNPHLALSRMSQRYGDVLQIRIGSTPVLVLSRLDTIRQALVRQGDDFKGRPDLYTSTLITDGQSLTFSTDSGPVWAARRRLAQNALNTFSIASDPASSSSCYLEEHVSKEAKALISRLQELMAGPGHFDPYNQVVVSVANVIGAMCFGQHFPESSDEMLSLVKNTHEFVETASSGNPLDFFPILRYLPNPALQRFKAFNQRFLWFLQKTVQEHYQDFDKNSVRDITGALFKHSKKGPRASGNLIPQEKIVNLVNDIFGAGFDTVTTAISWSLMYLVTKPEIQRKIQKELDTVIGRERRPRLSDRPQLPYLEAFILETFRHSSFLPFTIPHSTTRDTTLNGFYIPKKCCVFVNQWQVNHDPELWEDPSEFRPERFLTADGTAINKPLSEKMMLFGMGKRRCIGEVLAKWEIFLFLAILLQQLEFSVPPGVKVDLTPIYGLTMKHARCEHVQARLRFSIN

CYP2C8 [4] = biological target: T1, CYP2C8; assay: Inhibition of CYP2C8 in human liver microsomes assessed as enzyme-mediated metabolite formation at 0.1 uM using paclitaxel as substrate incubated for 5 mins followed by NADPH addition measured after 30 mins by LC-MS/MS analysis relative to control; set-up: scale not given: the % may be the effect or the level left; conditions: probe paclitaxel, read-out: Activity
Cytochrome P450 3A4 = Cytochrome P450 3A4 (Homo sapiens, UniProt P08684); assay: Inhibition of CYP3A4 in human liver microsomes using midazolam as substrate preincubated for 20 mins followed by substrate addition measured after 30 mins in presence of NADPH by LC-MS/MS analysis
Chain of Cytochrome P450 3A4 (P08684 whole entry): as the sequence (P08684 whole entry) above

Cytochrome P450 2C9 = Cytochrome P450 2C9 (Homo sapiens, UniProt P11712); assay: Inhibition of human CYP2C9 using diclofenac as substrate incubated for 5 mins followed by NADPH addition measured after 30 mins by LC-MS/MS analysis
Chain of Cytochrome P450 2C9 (P11712 whole entry): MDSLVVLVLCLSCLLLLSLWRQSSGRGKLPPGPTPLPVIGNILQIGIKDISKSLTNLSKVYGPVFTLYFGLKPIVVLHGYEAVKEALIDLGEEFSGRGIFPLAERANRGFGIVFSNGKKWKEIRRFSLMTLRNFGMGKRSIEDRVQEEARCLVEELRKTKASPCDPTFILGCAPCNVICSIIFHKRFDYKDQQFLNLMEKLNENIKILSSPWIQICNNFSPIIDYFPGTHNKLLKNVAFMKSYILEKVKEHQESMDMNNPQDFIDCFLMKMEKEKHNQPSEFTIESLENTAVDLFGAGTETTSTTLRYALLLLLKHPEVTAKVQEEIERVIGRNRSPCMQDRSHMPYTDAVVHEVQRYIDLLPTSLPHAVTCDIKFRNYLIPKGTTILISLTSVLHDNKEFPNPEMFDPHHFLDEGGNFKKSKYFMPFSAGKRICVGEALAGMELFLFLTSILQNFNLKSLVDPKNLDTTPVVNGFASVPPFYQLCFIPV

CYP2A6 = biological target: T4, CYP2A6 (Homo sapiens, UniProt P11509); assay: Inhibition of CYP2A6 in human liver microsomes assessed as enzyme-mediated metabolite formation at 0.3 uM using coumarin as substrate preincubated for 20 mins followed by substrate addition measured after 30 mins in presence of NADPH by LC-MS/MS analysis relative to control; set-up: scale not given: the % may be the effect or the level left; conditions: probe coumarin, read-out: Activity
T4 sequence (P11509 whole entry): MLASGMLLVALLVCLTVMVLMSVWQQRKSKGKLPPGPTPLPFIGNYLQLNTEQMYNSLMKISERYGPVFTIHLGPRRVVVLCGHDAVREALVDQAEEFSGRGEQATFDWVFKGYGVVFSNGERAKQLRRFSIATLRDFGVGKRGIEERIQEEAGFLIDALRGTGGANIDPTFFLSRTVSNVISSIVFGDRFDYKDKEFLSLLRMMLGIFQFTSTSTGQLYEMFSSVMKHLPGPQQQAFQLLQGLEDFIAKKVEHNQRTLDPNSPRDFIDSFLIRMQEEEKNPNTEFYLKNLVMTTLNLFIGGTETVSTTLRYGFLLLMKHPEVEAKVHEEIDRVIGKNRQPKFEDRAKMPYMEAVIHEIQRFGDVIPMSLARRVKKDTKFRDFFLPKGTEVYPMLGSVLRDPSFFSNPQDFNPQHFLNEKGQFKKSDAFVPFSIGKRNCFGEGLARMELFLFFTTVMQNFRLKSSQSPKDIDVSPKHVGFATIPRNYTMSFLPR

CYP2C8 [5] = biological target: T1, CYP2C8; assay: Inhibition of CYP2C8 in human liver microsomes assessed as enzyme-mediated metabolite formation at 30 uM using paclitaxel as substrate incubated for 5 mins followed by NADPH addition measured after 30 mins by LC-MS/MS analysis relative to control; set-up: scale not given: the % may be the effect or the level left; conditions: probe paclitaxel, read-out: Activity
CYP3A4 [6] = biological target: T2, CYP3A4; assay: Inhibition of CYP3A4 in human liver microsomes assessed as enzyme-mediated metabolite formation at 1 uM using testosterone as substrate preincubated for 20 mins followed by substrate addition measured after 30 mins in presence of NADPH by LC-MS/MS analysis relative to control; set-up: scale not given: the % may be the effect or the level left; conditions: probe testosterone, read-out: Activity
CYP2C9 = CYP2C9 (Homo sapiens, UniProt P11712); assay: Inhibition of CYP2C9 in human liver microsomes assessed as enzyme-mediated metabolite formation at 10 uM using diclofenac as substrate preincubated for 20 mins followed by substrate addition measured after 30 mins in presence of NADPH by LC-MS/MS analysis relative to control; set-up: scale not given: the % may be the effect or the level left; conditions: probe diclofenac, read-out: Activity
Chain of CYP2C9 (P11712 whole entry): as the sequence (P11712 whole entry) above

activity at 0.5 h, 0.3 µM (CYP2C8 [1]): 77.2%
activity at 0.5 h, 0.1 µM (CYP2C8 [2]): 83.2%
activity at 0.5 h, 30 µM (CYP3A4 [3]): 62.3%
activity at 0.5 h, 1 µM (CYP2C19): 72.1%
activity at 0.5 h, 1 µM (CYP1A2): 79.2%
activity at 0.5 h, 0.1 µM (CYP2C8 [4]): 88.7%
IC50 (Cytochrome P450 3A4): > 30 µM
IC50 (Cytochrome P450 2C9): 10.5 µM
inhibition (INH) (Cytochrome P450 2C9; human, 0.5 h): Dose-dependent effect
activity at 0.5 h, 0.3 µM (CYP2A6): 103%
activity at 0.5 h, 30 µM (CYP2C8 [5]): 35.5%
activity at 0.5 h, 1 µM (CYP3A4 [6]): 89.8%
activity at 0.5 h, 10 µM (CYP2C9): 60.8%
Compound: CCCCCCCC(=O)CCc1ccc(O)c(OC)c1
